Patent US20230233569A1 (Revolution Medicines, Inc., priority 2020, published 2023)
Several values for one entry are separate records, joined by “and”; a condition that tells them apart may be missing. Identical values can stand only once. Like-named read-outs stand apart in the source and are kept apart here.

How the values were obtained:
Experiment in all cases: Disruption of BRAF RBD interaction with Ras (FRET / MOA assay, with Cyclophilin A)
Assay type in all cases: biochemical
KRAS G12D = KRAS G12D (Homo sapiens, UniProt P01116+P62937, G12D)
Sequence of KRAS G12D (P01116 1-169 isoform P01116-2 G12D limits assumed): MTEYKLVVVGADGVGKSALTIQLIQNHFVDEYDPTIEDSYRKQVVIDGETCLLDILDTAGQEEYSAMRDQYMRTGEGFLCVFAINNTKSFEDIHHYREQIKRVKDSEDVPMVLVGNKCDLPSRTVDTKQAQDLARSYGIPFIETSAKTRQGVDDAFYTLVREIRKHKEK
Sequence of KRAS G12D (P62937 whole entry): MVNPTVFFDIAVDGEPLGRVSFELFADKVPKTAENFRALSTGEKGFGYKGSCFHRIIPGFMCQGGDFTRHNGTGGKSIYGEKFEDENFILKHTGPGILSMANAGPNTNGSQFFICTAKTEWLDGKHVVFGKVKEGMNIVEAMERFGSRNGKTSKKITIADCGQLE
Description: (§1) This protocol may also be executed substituting other Ras proteins or nucleotides.
(§2) The purpose of this biochemical assay was to measure the ability of test compounds to facilitate ternary complex formation between a nucleotide-loaded K-Ras isoform and Cyclophilin A; the resulting ternary complex disrupts binding to a BRAF^RBD construct, inhibiting K-Ras signaling through a RAF effector. Data is reported as IC50 values.
(§3) Compound was present in plate wells as a 10-point 3-fold dilution series starting at a final concentration of 30 μM. After incubation at 25° C. for 3 hours, a mixture of Anti-His Eu-W1024 and anti-GST allophycocyanin was then added to assay sample wells at final concentrations of 10 nM and 50 nM, respectively, and the reaction incubated for an additional 1.5 hours. […] Compounds that facilitate disruption of a K-Ras:RAF complex were identified as those eliciting a decrease in the TR-FRET ratio relative to DMSO control wells.
(§4) The purpose of this biochemical assay was to measure the ability of test compounds to facilitate ternary complex formation between a nucleotide-loaded K-Ras isoform and Cyclophilin A; the resulting ternary complex disrupts binding to a BRAF^RBDD construct, inhibiting K-Ras signaling through a RAF effector. Data is reported as IC50 values.

KRAS G12C = KRAS G12C (Homo sapiens, UniProt P01116+P62937, G12C)
Sequence of KRAS G12C (P01116 1-169 isoform P01116-2 G12C): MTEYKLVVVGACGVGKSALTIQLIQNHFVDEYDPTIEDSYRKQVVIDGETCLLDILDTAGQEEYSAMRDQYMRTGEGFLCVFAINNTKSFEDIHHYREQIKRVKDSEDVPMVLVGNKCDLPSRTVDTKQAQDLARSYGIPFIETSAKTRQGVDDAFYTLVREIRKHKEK
Sequence of KRAS G12C (P62937 whole entry): as the sequence (P62937 whole entry) above
Description: as §1, §2, §3, §4

KRAS G12V = KRAS G12V (Homo sapiens, UniProt P01116+P62937, G12V)
Sequence of KRAS G12V (P01116 1-169 isoform P01116-2 G12V limits assumed): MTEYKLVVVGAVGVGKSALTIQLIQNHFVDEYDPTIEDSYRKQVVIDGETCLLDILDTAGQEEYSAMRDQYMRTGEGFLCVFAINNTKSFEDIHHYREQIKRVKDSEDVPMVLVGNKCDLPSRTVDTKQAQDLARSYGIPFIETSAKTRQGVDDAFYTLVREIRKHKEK
Sequence of KRAS G12V (P62937 whole entry): as the sequence (P62937 whole entry) above
Description: as §1, §2, §3, §4

KRAS WT = KRAS WT (Homo sapiens, UniProt P01116+P62937)
Sequence of KRAS WT (P01116 1-169 isoform P01116-2 limits assumed): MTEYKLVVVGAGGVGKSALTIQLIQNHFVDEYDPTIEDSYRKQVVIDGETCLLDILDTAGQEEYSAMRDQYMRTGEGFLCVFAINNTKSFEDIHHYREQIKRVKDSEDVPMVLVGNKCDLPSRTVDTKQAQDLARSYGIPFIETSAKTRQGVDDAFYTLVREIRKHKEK
Sequence of KRAS WT (P62937 whole entry): as the sequence (P62937 whole entry) above
Description: as §1, §2, §3, §4

KRAS G13C = KRAS G13C (Homo sapiens, UniProt P01116+P62937, G13C)
Sequence of KRAS G13C (P01116 1-169 isoform P01116-2 G13C): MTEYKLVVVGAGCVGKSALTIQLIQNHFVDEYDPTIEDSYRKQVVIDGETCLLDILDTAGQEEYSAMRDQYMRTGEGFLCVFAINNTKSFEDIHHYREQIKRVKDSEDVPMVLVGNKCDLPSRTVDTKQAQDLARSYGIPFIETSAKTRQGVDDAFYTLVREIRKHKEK
Sequence of KRAS G13C (P62937 whole entry): as the sequence (P62937 whole entry) above
Description: as §1, §2, §3, §4

KRAS G12S = KRAS G12S (Homo sapiens, UniProt P01116+P62937, G12S)
Sequence of KRAS G12S (P01116 1-169 isoform P01116-2 G12S limits assumed): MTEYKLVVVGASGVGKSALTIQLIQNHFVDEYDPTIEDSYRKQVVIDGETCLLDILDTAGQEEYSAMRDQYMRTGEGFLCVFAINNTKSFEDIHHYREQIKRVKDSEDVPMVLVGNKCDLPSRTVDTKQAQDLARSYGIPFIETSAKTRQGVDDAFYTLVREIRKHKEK
Sequence of KRAS G12S (P62937 whole entry): as the sequence (P62937 whole entry) above
Description: as §1, §2, §3, §4

[1] = read-out: KRAS G12D FRET data, IC50
[2] = KRAS G12C, read-out: KRAS G12C FRET data IC50
[3] = KRAS G12V, read-out: KRAS G12V FRET data IC50
[4] = KRAS WT, read-out: KRAS WT FRET data IC50
[5] = KRAS G13C, read-out: KRAS G13C FRET data IC50
[6] = read-out: KRAS G12S FRET data, IC50

C=CC(=O)N1CC[C@H](C(=O)N(C)[C@H](C(=O)N[C@H]2Cc3cc(O)cc(c3)-c3ccc4c(c3)c(c(-c3ccc(C5CCN(C)CC5)cc3)n4CC)CC(C)(C)COC(=O)[C@@H]3CCCN(N3)C2=O)C(C)C)C1 [Example A039]
IC50 (KRAS G12D; [1]): 1 to 10 µM
IC50 (KRAS G12C; [2]): 0.1 to 1 µM
IC50 (KRAS G12V; [3]): 1 to 10 µM
IC50 (KRAS WT; [4]): 1 to 10 µM
IC50 (KRAS G13C; [5]): 1 to 10 µM
IC50 (KRAS G12S; [6]): 1 to 10 µM

C=CC(=O)N1CC[C@H](C(=O)N(C)[C@H](C(=O)N[C@H]2Cc3cc(O)cc(c3)-c3ccc4c(c3)c(c(-c3cccnc3CN(C)C)n4CC)CC(C)(C)COC(=O)[C@@H]3CCCN(N3)C2=O)C(C)C)C1 [Example A092]
IC50 (KRAS G12D; [1]): > 10 µM
IC50 (KRAS G12C; [2]): 0.1 to 1 µM
IC50 (KRAS G12V; [3]): 1 to 10 µM
IC50 (KRAS WT; [4]): 1 to 10 µM
IC50 (KRAS G13C; [5]): 1 to 10 µM
IC50 (KRAS G12S; [6]): 1 to 10 µM

C=CC(=O)N1C[C@H](C)[C@H](C(=O)N(C)[C@H](C(=O)N[C@H]2Cc3cc(O)cc(c3)-c3ccc4c(c3)c(c(-c3ccccc3CCOC)n4CC)CC(C)(C)COC(=O)[C@@H]3CCCN(N3)C2=O)C(C)C)C1 [Example A041]
IC50 (KRAS G12D; [1]): > 10 µM
IC50 (KRAS G12C; [2]): 0.1 to 1 µM
IC50 (KRAS G12V; [3]): 0.1 to 1 µM
IC50 (KRAS WT; [4]): 1 to 10 µM
IC50 (KRAS G13C; [5]): 1 to 10 µM
IC50 (KRAS G12S; [6]): 0.1 to 1 µM

C=CC(=O)N1CC[C@H](C(=O)N(C)[C@H](C(=O)N[C@H]2Cc3cc(O)cc(c3)-c3ccc4c(c3)c(c(-c3cccnc3COCC)n4CC)CC(C)(C)COC(=O)[C@@H]3CCCN(N3)C2=O)C(C)C)C1 [Example A044]
IC50 (KRAS G12D; [1]): 1 to 10 µM
IC50 (KRAS G12C; [2]): 0.01 to 0.1 µM
IC50 (KRAS G12V; [3]): 0.1 to 1 µM
IC50 (KRAS WT; [4]): 1 to 10 µM
IC50 (KRAS G13C; [5]): 0.1 to 1 µM
IC50 (KRAS G12S; [6]): 0.1 to 1 µM

C=CC(=O)N1CC[C@H](C(=O)N(C)[C@H](C(=O)N[C@H]2Cc3cc(O)cc(c3)-c3ccc4c(c3)c(c(-c3cncc(CN(C)C)c3)n4CC)CC(C)(C)COC(=O)[C@@H]3CCCN(N3)C2=O)C(C)C)C1 [Example A073]
IC50 (KRAS G12D; [1]): > 10 µM
IC50 (KRAS G12C; [2]): 0.1 to 1 µM
IC50 (KRAS G12V; [3]): 1 to 10 µM
IC50 (KRAS WT; [4]): 1 to 10 µM
IC50 (KRAS G13C; [5]): 1 to 10 µM
IC50 (KRAS G12S; [6]): 1 to 10 µM

C=CC(=O)N1CC[C@H](C(=O)N(C)[C@H](C(=O)N[C@H]2Cc3cc(OC(=O)NCC(=O)O)cc(c3)-c3ccc4c(c3)c(c(-c3ccccc3CCOC)n4CC)CC(C)(C)COC(=O)[C@@H]3CCCN(N3)C2=O)C(C)C)C1 [Example A036]
IC50 (KRAS G12D; KRAS G12D FRET data, IC50): > 10 µM
IC50 (KRAS G12C; KRAS G12C FRET data IC50, KRAS G12C): 1 to 10 µM and > 10 µM
IC50 (KRAS G12V; KRAS G12V FRET data IC50, KRAS G12V): 1 to 10 µM and > 10 µM
IC50 (KRAS WT; KRAS WT FRET data IC50, KRAS WT): 1 to 10 µM and > 10 µM
IC50 (KRAS G13C; KRAS G13C FRET data IC50, KRAS G13C): 0.1 to 1 µM and > 10 µM
IC50 (KRAS G12S; KRAS G12S FRET data, IC50): 1 to 10 µM and > 10 µM

C=CC(=O)N1CCCN(C(=O)N(C)[C@H](C(=O)N[C@H]2Cc3cc(O)cc(c3)-c3ccc4c(c3)c(c(-c3ccccc3CCOC)n4CC)CC(C)(C)COC(=O)[C@@H]3CCCN(N3)C2=O)C(C)C)CC1 [Example A013]
IC50 (KRAS G12D; [1]): > 10 µM
IC50 (KRAS G12C; [2]): 0.1 to 1 µM
IC50 (KRAS G12V; [3]): 1 to 10 µM
IC50 (KRAS WT; [4]): 1 to 10 µM
IC50 (KRAS G13C; [5]): 0.1 to 1 µM
IC50 (KRAS G12S; [6]): 1 to 10 µM

C=CC(=O)N1CC[C@H](C(=O)N(C)[C@H](C(=O)N[C@H]2Cc3cc(O)cc(c3)-c3ccc4c(c3)c(c(-c3cncc(CCN(C)C)c3)n4CC)CC(C)(C)COC(=O)[C@@H]3CCCN(N3)C2=O)C(C)C)C1 [Example A081]
IC50 (KRAS G12D; [1]): > 10 µM
IC50 (KRAS G12C; [2]): 0.1 to 1 µM
IC50 (KRAS G12V; [3]): 1 to 10 µM
IC50 (KRAS WT; [4]): 1 to 10 µM
IC50 (KRAS G13C; [5]): 1 to 10 µM
IC50 (KRAS G12S; [6]): 1 to 10 µM

C=CC(=O)N1C[C@H](C)[C@H](C(=O)N(C)[C@H](C(=O)N[C@H]2Cc3cc(O)cc(c3)-c3ccc4c(c3)c(c(-c3ccccc3CN(C)C)n4CC)CC(C)(C)COC(=O)[C@@H]3CCCN(N3)C2=O)C(C)C)C1 [Example A052]
IC50 (KRAS G12D; [1]): 1 to 10 µM
IC50 (KRAS G12C; [2]): 0.01 to 0.1 µM
IC50 (KRAS G12V; [3]): 0.1 to 1 µM
IC50 (KRAS WT; [4]): 0.1 to 1 µM
IC50 (KRAS G13C; [5]): 0.1 to 1 µM
IC50 (KRAS G12S; [6]): 0.1 to 1 µM

C=CC(=O)N1CC[C@H](C(=O)N(C)[C@H](C(=O)N[C@H]2Cc3cc(O)cc(c3)-c3ccc4c(c3)c(c(-c3ccc(CN(C)C)cc3COC)n4CC)CC(C)(C)COC(=O)[C@@H]3CCCN(N3)C2=O)C(C)C)C1 [Example A051]
IC50 (KRAS G12D; [1]): 1 to 10 µM
IC50 (KRAS G12C; [2]): 0.01 to 0.1 µM
IC50 (KRAS G12V; [3]): 0.1 to 1 µM
IC50 (KRAS WT; [4]): 1 to 10 µM
IC50 (KRAS G13C; [5]): 1 to 10 µM
IC50 (KRAS G12S; [6]): 0.1 to 1 µM

C=CC(=O)N1CC[C@H](C(=O)N(C)[C@H](C(=O)N[C@H]2Cc3cc(O)cc(c3)-c3ccc4c(c3)c(c(-c3cccnc3COC)n4CC)CC(C)(C)COC(=O)[C@@H]3CCCN(N3)C2=O)C2CCCC2)C1 [Example A055]
IC50 (KRAS G12D; [1]): 1 to 10 µM
IC50 (KRAS G12C; [2]): 0.01 to 0.1 µM
IC50 (KRAS G12V; [3]): 0.1 to 1 µM
IC50 (KRAS WT; [4]): 1 to 10 µM
IC50 (KRAS G13C; [5]): 0.1 to 1 µM
IC50 (KRAS G12S; [6]): 0.1 to 1 µM

C=CC(=O)N1CC[C@H](C(=O)N(C)[C@H](C(=O)N[C@H]2Cc3cc(OC(=O)CCC(=O)O)cc(c3)-c3ccc4c(c3)c(c(-c3ccccc3CCOC)n4CC)CC(C)(C)COC(=O)[C@@H]3CCCN(N3)C2=O)C(C)C)C1 [Example A032]
IC50 (KRAS G12D; [1]): > 10 µM
IC50 (KRAS G12C; [2]): 0.01 to 0.1 µM and 1 to 10 µM
IC50 (KRAS G12V; [3]): 1 to 10 µM and > 10 µM
IC50 (KRAS WT; [4]): 1 to 10 µM and > 10 µM
IC50 (KRAS G13C; [5]): 1 to 10 µM and > 10 µM
IC50 (KRAS G12S; [6]): 0.1 to 1 µM and > 10 µM

C=CC(=O)N1CC[C@H](C(=O)N(C)[C@H](C(=O)N[C@H]2Cc3cc(cc(O)c3F)-c3ccc4c(c3)c(c(-c3ccccc3CCOC)n4CC)CC(C)(C)COC(=O)[C@@H]3CCCN(N3)C2=O)C(C)C)C1 [Example A009]
IC50 (KRAS G12D; [1]): > 10 µM
IC50 (KRAS G12C; [2]): 1 to 10 µM
IC50 (KRAS G12V; [3]): > 10 µM
IC50 (KRAS WT; [4]): > 10 µM
IC50 (KRAS G13C; [5]): > 10 µM
IC50 (KRAS G12S; [6]): > 10 µM

C=CC(=O)N1CC[C@H](C(=O)N(C)[C@H](C(=O)N[C@H]2Cc3cc(O)cc(c3)-c3ccc4c(c3)c(c(-c3ccccc3[C@@H](C)OC)n4CC)CC(C)(C)COC(=O)[C@@H]3CCCN(N3)C2=O)C(C)C)C1 [Example A029]
IC50 (KRAS G12D; [1]): 1 to 10 µM
IC50 (KRAS G12C; [2]): 0.01 to 0.1 µM
IC50 (KRAS G12V; [3]): 0.1 to 1 µM
IC50 (KRAS WT; [4]): 0.1 to 1 µM
IC50 (KRAS G13C; [5]): 0.1 to 1 µM
IC50 (KRAS G12S; [6]): 0.1 to 1 µM

C=CC(=O)N1CCN(C(=O)N(C)[C@H](C(=O)N[C@H]2Cc3cc(O)cc(c3)-c3ccc4c(c3)c(c(-c3ccccc3CCOC)n4CC)CC(C)(C)COC(=O)[C@@H]3CCCN(N3)C2=O)C(C)C)CC1 [Example A018]
IC50 (KRAS G12D; [1]): > 10 µM
IC50 (KRAS G12C; [2]): 0.1 to 1 µM
IC50 (KRAS G12V; [3]): 1 to 10 µM
IC50 (KRAS WT; [4]): 1 to 10 µM
IC50 (KRAS G13C; [5]): 0.1 to 1 µM
IC50 (KRAS G12S; [6]): 1 to 10 µM

C=CC(=O)N1CC[C@H](C(=O)N(C)[C@H](C(=O)N[C@H]2Cc3cc(O)cc(c3)-c3ccc4c(c3)c(c(-c3ccc(CC(=O)O)cc3)n4CC)CC(C)(C)COC(=O)[C@@H]3CCCN(N3)C2=O)C(C)C)C1 [Example A021]
IC50 (KRAS G12D; [1]): > 10 µM
IC50 (KRAS G12C; [2]): 1 to 10 µM
IC50 (KRAS G12V; [3]): > 10 µM
IC50 (KRAS WT; [4]): > 10 µM
IC50 (KRAS G13C; [5]): > 10 µM
IC50 (KRAS G12S; [6]): > 10 µM
